How the values were obtained:
endogenous TG2 = target: T1, endogenous TG2 (Homo sapiens, UniProt P21980); test: TG2 GTP-agarose pull-down assay, HaCaT cells; type: cell-based; conditions: 48 h
T1 construct: endogenous in cells; host or cells: HaCaT
T1 sequence (P21980 1-687): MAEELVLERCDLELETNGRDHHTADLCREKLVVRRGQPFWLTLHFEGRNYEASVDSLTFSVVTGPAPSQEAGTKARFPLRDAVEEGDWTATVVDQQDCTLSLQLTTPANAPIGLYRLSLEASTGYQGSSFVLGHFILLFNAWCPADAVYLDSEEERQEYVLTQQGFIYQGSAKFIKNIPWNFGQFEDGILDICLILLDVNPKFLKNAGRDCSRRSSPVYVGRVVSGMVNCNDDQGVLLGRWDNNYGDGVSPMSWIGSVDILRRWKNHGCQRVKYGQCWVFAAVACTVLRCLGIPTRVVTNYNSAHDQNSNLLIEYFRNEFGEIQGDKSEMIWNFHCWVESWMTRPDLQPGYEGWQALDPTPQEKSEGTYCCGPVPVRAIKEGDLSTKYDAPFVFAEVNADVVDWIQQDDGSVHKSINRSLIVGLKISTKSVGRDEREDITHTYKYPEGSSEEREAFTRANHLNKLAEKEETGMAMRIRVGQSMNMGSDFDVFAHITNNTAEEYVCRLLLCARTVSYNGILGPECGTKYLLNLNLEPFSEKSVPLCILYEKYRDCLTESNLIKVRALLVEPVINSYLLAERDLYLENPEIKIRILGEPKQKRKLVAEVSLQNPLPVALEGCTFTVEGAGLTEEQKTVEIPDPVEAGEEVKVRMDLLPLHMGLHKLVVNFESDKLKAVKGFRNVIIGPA
Description: HaCaT cells were electroporated with mCer-TG2 or mCer-TG2-YAP and then treated with 0 or 5 μM of the indicated inhibitor and fluorescent lifetime was monitored. […] HaCaT cells were preloaded with fluorescein cadaverine, treated with the indicated inhibitor and then challenged with calcium ionophore, washed and assayed for FC incorporation. […] HaCaT were incubated for 48 h with the indicated inhibitor and extracts were prepared and incubated with GTP-agarose beads to measure TG2 binding to GTP agarose. The beads were then washed, boiled in Laemmli buffer and electrophoresed for immunoblot detection of TG2. Cell equivalent quantities of total and bound samples were electrophoresed to facilitate comparison of GTP bound versus total. […] Experiments were performed as described in FIGS. 31 (F) and (G).

TG2 [1] = target: T2, TG2 (Homo sapiens, UniProt P21980); test: Inhibitor modulation of recombinant TG2 conformation (native gel); type: biochemical; parameters: made in house; conditions: 500 μM inhibitor 1 h, then 0 or 500 μM GTP
T2 sequence (P21980 1-687): T1 sequence (P21980 1-687)
Description: Inhibitor modulation of recombinant TG2 conformation. Recombinant TG2 protein was prepared in the Center for Biomolecular Therapeutics by Dr. Eric Toth (University of Maryland School of Medicine). […] In some experiments, inhibitor and GTP were added simultaneously. Laemmli native loading buffer was added, and 6 μg of protein was electrophoresed on a native 4% to 6% acrylamide gel and electrophoresed at 125 V for 45 min at 4° C. using Tris-glycine running buffer (Pinkas, D. M. et al., PLoS Biol 5:e327, 2007; Begg, G. E. et al., Proc. Natl. Acad. Sci. USA 103:19683-8, 2006). The gel was subsequently fixed in 40% methanol/10% acetic acid for 30 min, stained 30 minutes with 0.25% Coomassie R-250, destained overnight with 10% methanol/10% acetic acid and photographed.

[2] = tested on: rat primary cortical neurons; test: Neuronal viability by resazurin assay; type: cell-based; conditions: 24 h
Description: DMSO was used as a control. At the end of the treatment, neuronal viability was measured by resazurin assay. Results are shown as a percent of DMSO control (±SEM) (N=3).

SCC-13 cells = test: Migration (scratch wound closure) assay, SCC-13 cells; type: cell-based, human; conditions: for cell migration (scratch wound closure): 0-12 h
Description: (§1) Migration assay. SCC13-Control-shRNA or SCC13-TG2-shRNA2 cells (2×10^6) were plated in 10 cm dishes and grown as monolayer cultures in spheroid medium until confluent. A 10 μl pipette tip was used to prepare areas void of cells and the dishes were washed to remove the dislodged cells. Images were collected, at 0-18 h after the scratch using the 10× objective, and the width of the opening was measured as a function of time as an index of cell migration potential.
as §1, with “Cells (2 million)” for “SCC13-Control-shRNA or SCC13-TG2-shRNA2 cells (2×10^6)”, “The ability of the cells to close the scratch wounds was monitored” for “Images were collected,”, “(Adhikary, G. et al., PLoS One 8:e84324, 2013).” for “potential.”

TG2 [3] = target: T2, TG2; test: Colorimetric transamidase activity assay (AL5 substrate), hTG2; type: biochemical
Description: In Vitro Assays. Colorimetric transamidase activity assay. The activities of hTG1, hTG2 and hTG6 were measured via a colorimetric assay using the chromogenic substrate Cbz-Glu(γ-p-nitrophenyl ester)Gly (AL5). The assay was conducted at 25° C. in 100 mM MOPS buffer (pH 6.5) containing 3.0 mM CaCl2 and 50 μM EDTA. […] A stock solution of AL5 was prepared in DMSO such that the final concentration of this co-solvent was constant at 2.5% v/v. Stock solutions of the inhibitors were made in the buffer system previously described. The reaction was initiated with the addition of 40-60 mU/mL of the respective enzyme (0.10 μM hTG1, 0.25 μM hTG2 or 0.32 μM hTG6). Product formation was monitored at 405 nm in a polystyrene 96-well microplate using a BioTek Synergy 4 plate reader. […] Observed first-order rate constants of inactivation (kobs) were determined from non-linear regression fit to a mono-exponential model (Equation 1) of the observed absorbance of the enzymatic hydrolysis product, p-nitrophenolate (pNP). […] Experiments were done in triplicate and variation between repeats was less than 30%.

purified human TG2 = target: T3, purified human TG2 (Homo sapiens, UniProt P21980); test: Native PAGE of TG2 conformation; type: biochemical; conditions: NC9 120 μM, VA4 40 μM, VA5 40 μM with calcium, 90 min
T3 sequence (P21980 1-687): T1 sequence (P21980 1-687)
Description: Following this incubation, samples were run on polyacrylamide gel under non-denaturing conditions and in the presence of […] and magnesium. The gel was Coomassie stained and a picture of the gel is shown.
Native PAGE. Native gel electrophoresis experiments were performed using a method similar to those described previously (Begg, G. E. et al., Proc. Natl. Acad. Sci. U.S.A. 103: 19683-19688, 2006; Pinkas, D. M. et al., PLoS Biol. 5: e327, 2007). Briefly, TG2 or inhibited TG2 (2.5 μM) was incubated for 1.5 h at room temperature in pre-incubation buffer (50 mM Tris, 5 mM DTT, 0.5 mM EDTA) at pH 7.0 with or without 100 μM GTP/1.0 mM MgCl2 or 5.0 mM CaCl2. Laemmli native loading buffer was added (1:1) and 1.5 μg of TG2 was loaded onto a 4-20% Tris-HCl ReadyGel (Bio-Rad) using Tris-glycine as the running buffer with 100 μM GTP/1.0 mM MgCl2. For 90 min, 120 V was applied at 4° C. The gel was stained with 0.5% Coomassie brilliant blue R-250 in 40% methanol/10% acetic acid and destained in 10% methanol/10% acetic acid.

HaCaT cells = test: Matrigel invasion assay, HaCaT cells; type: cell-based, human; conditions: 20 μM, 24 h

Row | SMILES | TG2 GTP binding (endogenous TG2) | recombinant TG2 conformation, pre-incubation with inhibitor (TG2 [1]) | neuronal viability / tolerability [2] | cell migration (scratch wound closure) (SCC-13 cells) | kinact (TG2 [3]; Table 8, read-out: kinact (converted)) [s⁻¹] | kinact/KI (TG2 [3]; read-out: kinact/KI (10^3M^−1 min^−1), Table 8) [M⁻¹ s⁻¹] | conformation of inhibitor-bound TG2 (purified human TG2) | invasion through matrigel (HaCaT cells) | reduction in the inhibition binding constant (TG2 [3]; compared to NC9) | cell migration (SCC-13 cells; 20 μM, 0-18 h) | kobs (10^−3 min^−1), TG2 (TG2 [3]; Table 9, Kitz and Wilson conditions, inhibitor concentration adjusted for competition with substrate)
1 | C=CC(=O)NCCCC[C@H](NC(=O)OCc1ccccc1)C(=O)N1CCN(C(=O)c2cc3ccc(O)cc3oc2=O)CC1 [VA5, (S)-Benzyl(6-acrylamido-1-(4-(7-hydroxy-2-oxo-2H-chromene-3-carbonyl)piperazin-1-yl)-1-oxohexan-2-yl)carbamate] | reduced TG2 GTP binding | shifted TG2 from the closed to extended conformation and that this was not reversed by GTP addition | well tolerated up to 10 μM concentration | inhibited cell migration | 0.0115 | 1040 | open conformation | suppressed |  |  | 
2 | C=CC(=O)NCCCC[C@H](NC(=O)OCc1ccccc1)C(=O)N1CCN(S(=O)(=O)c2cccc3c(N(C)C)cccc23)CC1 [VA4, (S)-benzyl(6-acrylamido-1-(4-((5-(dimethylamino)naphthalen-1-yl)sulfonyl)piperazin-1-yl)-1-oxohexan-2-yl)carbamate] | reduced TG2 GTP binding | shifted TG2 from the closed to extended conformation and that this was not reversed by GTP addition | well tolerated up to 10 μM concentration | inhibited cell migration |  |  | open conformation | suppressed | greater than two-fold reduction |  | 
3 | C=CC(=O)NCCCC[C@H](NC(=O)OCc1ccccc1)C(=O)NCCOCCOCCNS(=O)(=O)c1cccc2c(N(C)C)cccc12 [NC9] | reduced TG2 GTP binding | shifted TG2 from the closed to extended conformation and that this was not reversed by GTP addition | well tolerated up to 10 μM concentration | inhibited cell migration |  |  | open conformation | suppressed |  | reduced | 390 ± 49 10^−3 min^−1
